Results as given in US12403114B2, “Cannabinoid acid ester compositions and uses thereof” (EPM (IP), INC., priority 2019, dated 2025).

Experiments:
LLCPK1 cells = test: Cellular lipid accumulation test in renal proximal tubule cells; format: cell-based; conditions: 3.125-25 μM; cells exposed to a mixture of oleate and palmitate, 24 hr (FIG. 31)
Method: To test whether CBDA-ME has the ability to reduce lipid accumulation in renal proximal tubule cells, we have utilized an in vitro model of fat accumulation in LLCPK1 cells. Briefly, LLCPK1 cells were maintained at 37° C. in 5% CO2 in DMEM medium supplemented with 10% FCS, 2 mM 1-glutamine, 1 mM sodium pyruvate, 100 U/mL penicillin and […] streptomycin. Free fatty acids (2:1, molar ratio, oleic and palmitic acids) were mixed with bovine serum albumin (BSA). Cells were incubated with fatty acid-BSA complex in FCS-free culture medium at 0.3 mM final concentration of fatty acid and 1% of BSA. Control cell cultures were incubated with medium containing the vehicle. Compounds were tested in a range of concentrations (as detailed in the results section) in the presence/absence of fatty acids. After 24 hr of incubation with the compounds, the cells were washed, incubated with 1 μg/mL mixture of Nile-Red/Hoechst solution for 15 mins at 37° C. protected from light. Fluorescence was measured by the Cytation-3 plate reader at ex:488 nm/em:550 for Nile-Red and Hoechst, respectively. Results were normalized to total protein levels of each well, and presented as a change in the accumulation of lipids in comparison with Vehicle-treated group.

[1] = molecular target: T1, glucose transporter 2 (GLUT2) (Homo sapiens, UniProt P11168); test: 2-NBDG glucose uptake in transfected HEK293t cells; format: cell-based; conditions: 50-0.1 μM tested
T1 construct: expressed in transfected cells; host or cells: HEK293t
T1 sequence (P11168 1-524): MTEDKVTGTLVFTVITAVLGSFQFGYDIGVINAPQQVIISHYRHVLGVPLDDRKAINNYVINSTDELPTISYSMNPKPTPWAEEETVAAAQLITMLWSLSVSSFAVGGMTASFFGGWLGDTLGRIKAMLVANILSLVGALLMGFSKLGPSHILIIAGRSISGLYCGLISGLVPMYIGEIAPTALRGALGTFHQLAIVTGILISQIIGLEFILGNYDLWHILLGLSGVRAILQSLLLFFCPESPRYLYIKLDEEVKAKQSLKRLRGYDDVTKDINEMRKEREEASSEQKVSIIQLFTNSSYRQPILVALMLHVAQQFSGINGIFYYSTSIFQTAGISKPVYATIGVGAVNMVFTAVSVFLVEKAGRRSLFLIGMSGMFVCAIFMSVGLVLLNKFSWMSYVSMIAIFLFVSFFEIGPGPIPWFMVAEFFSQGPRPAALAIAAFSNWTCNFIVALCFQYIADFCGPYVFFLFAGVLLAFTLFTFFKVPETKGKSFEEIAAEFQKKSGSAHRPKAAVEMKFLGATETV
Method: In vitro assays for measuring glucose uptake were designed to assess whether EPM-301 and EPM-302 compounds are capable of inhibiting or increasing glucose uptake via glucose transporters (GLUTs).
Transfected HEK293t cells, which express the glucose transporter 2 (GLUT2), were cultured in a 96 well plate and maintained at 37° C. in 5% CO2 in DMEM medium supplemented with 10% FCS, 2 mM 1-glutamine, 1 mM sodium pyruvate, 100 U/mL penicillin, and […] streptomycin for 24 h. The medium was then washed with a choline chloride Na^+-free buffer (CCB), in which only GLUTs (and not the sodium/glucose transporters [SGLTs]) were active. The wells were then added with CCB/CCB+2-NBDG (a fluorescent derivative of glucose). Compounds were tested in a range of concentrations for their ability to inhibit/increase 2-NBDG uptake into the cells. After 1.5 h incubation, cells were washed with CCB and incubated with 1 μg/μL of Hoechst for 15 mins at 37° C. and protected from light. Fluorescence was measured by the Cytation-3 plate reader at ex:485 nm/em:528 nm and ex:350 nm/em:461 nm for 2-NBDG Hoechst, respectively. Results of the 2-NBDG levels were normalized to Hoechst levels of each well, and presented as a change in the uptake of 2-NBDG in comparison with Vehicle-treated group.
Vehicle solution (choline chloride buffer), EPM-301 (50-0.1 μM), and EPM-302 (50-0.1 μM) were used for the experiments.
Values are expressed as mean±SEM. Unpaired two-tailed student's t-test was used to determine the differences between the groups. Significance was set at p<0.05. *versus vehicle; #versus control.

[2] = test system: partial meniscectomy/ACL transection rat model of surgical induced osteoarthritis; test: Morphological evaluation of the joint surfaces (osteophyte, gross surface, articular surface damage), Example 6; format: in vivo
Method: Morphological evaluation of the joint surfaces was performed using digital images of the joint. The parameters evaluated included percentage of articular surface damage of the proximal tibia calculated as the area of lesions divided by the total condylar surface area, gross surface score and osteophyte score as described (Yanagisawa et al. BMC Musculoskeletal Disorders. April 2016; 17:188).
The gross finding score in the articular cartilage was graded as follows: • (i) Grade 1—intact articular surface; • (ii) Grade 2—minimal osteophyte; • (iii) Grade 3—over spur formation; • (iv) Grade 4—width of erosion area 0 to 0.5 mm • (v) Grade 5—width of erosion area 0.5 to 1 mm. • (vi) Grade 6—width erosion area 1 to 1.5 mm • (vii) Grade 7—width of erosion area 1.5 to 2.0 mm • (viii) Grade 8—width of erosion area >2.0 mm
The osteophyte score was graded as follows: • (i) Grade 0—normal around the medial tibia; • (ii) Grade 1—osteophyte formation ⅓ around the medial tibia; • (iii) Grade 2—osteophyte formation halfway around the medial tibia; • (iv) Grade 3—osteophyte formation ⅔ around the medial tibia; • (v) Grade 4—osteophyte formation all around the medial tibia.

## C=C(C)[C@@H]1CCC(C)=CC1c1c(O)cc(CCCCC)c(C(=O)OC)c1O (stereo partly drawn) [EPM-301, cannabidiolic acid methyl ester]
LLCPK1 cells
  fat accumulation in kidney cells (lipotoxicity): prevent
[1]
  concentration at which the effect on glucose transport was observed: 50 µM
[1]; 1.5 h incubation, versus vehicle (FIG. 36A, 36B)
  glucose uptake (2-NBDG) in HEK293 cells: significantly reduce
[2]; as compared to the HA and CS treated groups (FIG. 4)
  gross surface score: improvement
[2]; as compared to the HA and CS treated groups (FIG. 5)
  percentage of articular surface damage: less
[2]; relative to the hyaluronic acid and the corticosteroid treatments (FIG. 3)
  osteophyte score: superiority
